In paper PMC4088988 (Bioorganic & medicinal chemistry, 2013):
Entries after “also recorded” stand apart in the source; their conditions may differ.

What was measured:
[1] = test system: glucocorticoid receptor (GR); conditions: cited from earlier work
[2] = test system: mineralocorticoid receptor (MR); conditions: cited from earlier work
GR = target: T1, GR (Homo sapiens, UniProt P04150); assay: GR Nuclear Translocation PathHunter assay; type: cell-based; conditions: for Rank GR translocation: rank among tested compounds; for GR translocation activity: Fig. 3
T1 sequence (P04150 1-777): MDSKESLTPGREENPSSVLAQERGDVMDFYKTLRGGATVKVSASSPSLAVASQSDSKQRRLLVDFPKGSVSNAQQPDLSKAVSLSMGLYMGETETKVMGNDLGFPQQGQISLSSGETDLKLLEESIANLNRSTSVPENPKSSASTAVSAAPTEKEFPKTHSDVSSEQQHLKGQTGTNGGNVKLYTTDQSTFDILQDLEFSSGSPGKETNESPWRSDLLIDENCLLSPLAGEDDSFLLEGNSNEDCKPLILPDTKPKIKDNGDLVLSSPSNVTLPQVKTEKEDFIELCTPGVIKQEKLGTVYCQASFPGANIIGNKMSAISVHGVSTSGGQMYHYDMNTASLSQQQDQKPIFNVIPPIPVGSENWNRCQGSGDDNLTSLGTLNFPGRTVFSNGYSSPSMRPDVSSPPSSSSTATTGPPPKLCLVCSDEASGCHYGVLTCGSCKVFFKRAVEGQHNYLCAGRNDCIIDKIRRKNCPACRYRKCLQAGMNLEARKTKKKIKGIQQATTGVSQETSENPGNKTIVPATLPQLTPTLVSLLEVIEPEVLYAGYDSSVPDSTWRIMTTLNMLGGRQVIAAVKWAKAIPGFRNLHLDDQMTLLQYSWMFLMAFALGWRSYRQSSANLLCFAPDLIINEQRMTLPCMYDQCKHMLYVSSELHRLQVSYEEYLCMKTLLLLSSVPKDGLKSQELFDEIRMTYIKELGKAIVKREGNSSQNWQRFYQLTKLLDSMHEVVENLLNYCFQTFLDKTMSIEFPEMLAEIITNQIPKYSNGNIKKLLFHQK

CYP3A4 = CYP3A4 induction in human hepatocytes; type: in vitro ADME; conditions: three human hepatocyte donors, 1, 10, 100 μM, % of positive control rifampin
Micronucleus test = conditions: Positive/negative
[3] = Pharmacokinetics in Sprague–Dawley rats, IV and PO; type: in vivo
Ames test = conditions: Positive/negative
CYP1A2 = CYP1A2 induction in human hepatocytes; type: in vitro ADME; conditions: three human hepatocyte donors, 1, 10, 100 μM, relative to omeprazole
[4] = Metabolite identification in dog hepatocytes; type: in vitro ADME; conditions: 10 μM, 2 and 4 h
[5] = Metabolite identification in monkey hepatocytes; type: in vitro ADME; conditions: 10 μM, 2 and 4 h
[6] = Pharmacokinetics in CD1 mice, IV and PO; type: in vivo; conditions: for AUC0, total, unbound / Cmax, total, unbound: Table 4
[7] = test system: glucocorticoid response element (GRE); assay: Transactivation assay, GRE-luciferase reporter in HEK-293 cells; type: cell-based; conditions: HEK-293 GRE-luciferase, 0.01 to 100 μg/ml, 6 h
[8] = Pharmacokinetics in beagle dogs, IV and PO; type: in vivo
[9] = Metabolic stability in rat liver microsomes; type: in vitro ADME; conditions: 60 min, NADPH
[10] = Metabolite identification in human hepatocytes; type: in vitro ADME; conditions: 10 μM, 2 and 4 h
[11] = Metabolite identification in rat hepatocytes; type: in vitro ADME; conditions: 10 μM, 2 and 4 h
NF-κB = type: cell-based; conditions: C2C12 myoblasts and myotubes, Fig. 2/3
[12] = single administration, cited from earlier work
[13] = CD1 mice, IV 10 mg/kg, 10 mg/kg

C[C@]12CCC(=O)C=C1CC[C@@H]1C2=CC[C@@]2(C)[C@H]1CC[C@]2(O)C(=O)CO [VBP1]
binding to the GR [1]: relatively high affinity binding
binding to the MR [2]: relatively high affinity binding
Rank GR translocation (GR): 6

C[C@@H]1C[C@H]2[C@@H]3CCC4=CC(=O)C=C[C@]4(C)C3=CC[C@]2(C)[C@@]1(O)C(=O)CO [VBP15]
CYP3A4 induction (CYP3A4): 24–42%
Micronucleus test (Micronucleus test): Negative
AUC0, total, unbound ([3]; Rat 10 mpk IV): 8339 (IV) h ng/mL
AUC0, total, unbound ([3]; Rat 50 mpk PO): 19937 (PO) h ng/mL
Cmax, total, unbound ([3]; Rat 50 mpk PO, 50 mg/kg): 2543 (PO) ng/mL
Ames test (Ames test): Negative
CYP1A2 induction (CYP1A2): no induction
number of metabolites identified [4]: 3
number of metabolites identified [5]: Four
GR translocation activity (GR): high activities
Clobs [6, 13]: 18.8 (IV) mL/min/kg
Vssobs [6, 13]: 0.757 (IV) L/kg
AUC0, total, unbound ([6]; Mouse 10 mpk IV): 8842 (IV) h ng/mL
Cmax, total, unbound ([6]; Mouse 10 mpk IV): 11167 (IV) ng/mL
AUC0, total, unbound ([6]; Mouse 50 mpk PO): 32932 (PO) h ng/mL
Cmax, total, unbound ([6]; Mouse 50 mpk PO, 50 mg/kg): 6787 (PO) ng/mL
GRE-dependent gene transcription (luciferase) [7]: lack of transactivation properties; also recorded: lacks GRE-mediated transcriptional activity
AUC0, total, unbound ([8]; Dog 10 mpk IV): 6791 (IV) h ng/mL
AUC0, total, unbound ([8]; Dog 30 mpk PO): 10844 (PO) h ng/mL
Cmax, total, unbound ([8]; Dog 30 mpk PO, 30 mg/kg): 814 (PO) ng/mL
Stability–microsomes, remaining at 1 h [9]: Rat = 35.4%
number of metabolites identified [10]: Four
number of metabolites identified [11]: 5
NF-κB inhibition activity (NF-κB): high activities

CC(=O)OCC(=O)[C@H]1[C@H](C)C[C@H]2[C@@H]3CCC4=CC(=O)C=C[C@]4(C)C3=CC[C@@]21C [VBP7]
GR translocation activity (GR): high activities
Rank GR translocation (GR): 7
NF-κB inhibition activity (NF-κB): high activities

C[C@]12C=CC(=O)C=C1CC[C@@H]1[C@@H]2[C@@H](O)C[C@@]2(C)[C@H]1CC[C@]2(O)C(=O)CO [prednisolone, reference compound]
GRE-dependent gene transcription (luciferase) [7]: significant dose-dependent response

C[C@]12C=CC(=O)C=C1CC[C@@H]1[C@@H]2C(=O)C[C@@]2(C)[C@H]1CC[C@]2(O)C(=O)CO [Prednisone, reference compound]
GRE-dependent gene transcription (luciferase) [7]: induced luciferase expression

C[C@@H]1C[C@H]2[C@@H]3CCC4=CC(=O)C=C[C@]4(C)C3=CC[C@]2(C)[C@H]1C(=O)CO [VBP6]
GR translocation activity (GR): high activities
Rank GR translocation (GR): 4
AUC/D ([6]; CD1 mice, IV 10 mg/kg): 345 ng·h/mL
AUC/D ([6]; CD1 mice, PO 50 mg/kg, 30% Labrafil): 440 ng·h/mL
NF-κB inhibition activity (NF-κB): high activities

CC(=O)OCC(=O)[C@@]1(O)CC[C@@H]2[C@H]3CCC4=CC(=O)CC[C@]4(C)C3=CC[C@@]21C [anecortave acetate, [2-[(8R,10S,13S,14R,17R)-17-hydroxy-10,13-dimethyl-3-oxo-2,6,7,8,12,14,15,16-octahydro-1H-cyclopenta[a]phenanthren-17-yl]-2-oxo-ethyl] acetate, reference compound]
binding to the GR [1]: relatively high affinity binding
binding to the MR [2]: relatively high affinity binding
reduction in IOP ([12]; best dose): 31%
mean duration of IOP benefit [12]: 56 days
